ChEMBL document CHEMBL3870342, “New polyhydroxytriterpenoid derivatives from fruits of Terminalia chebula Retz. and their α-glucosidase and α-amylase inhibitory activity” (Bioorg Med Chem Lett, 2017)
pIC50: −log10 of the molar value.

Tests used:
Rattus norvegicus = species: Rattus norvegicus; assay: Inhibition of rat intestinal alpha-glucosidase using PNPG as substrate at 200 uM after 30 mins
[1] = biological target: T1, Pancreatic alpha-amylase (Sus scrofa) (UniProt P00690); assay: Inhibition of pig pancreas alpha-amylase using potato starch as substrate at 200 uM after 15 mins
T1 sequence (whole entry): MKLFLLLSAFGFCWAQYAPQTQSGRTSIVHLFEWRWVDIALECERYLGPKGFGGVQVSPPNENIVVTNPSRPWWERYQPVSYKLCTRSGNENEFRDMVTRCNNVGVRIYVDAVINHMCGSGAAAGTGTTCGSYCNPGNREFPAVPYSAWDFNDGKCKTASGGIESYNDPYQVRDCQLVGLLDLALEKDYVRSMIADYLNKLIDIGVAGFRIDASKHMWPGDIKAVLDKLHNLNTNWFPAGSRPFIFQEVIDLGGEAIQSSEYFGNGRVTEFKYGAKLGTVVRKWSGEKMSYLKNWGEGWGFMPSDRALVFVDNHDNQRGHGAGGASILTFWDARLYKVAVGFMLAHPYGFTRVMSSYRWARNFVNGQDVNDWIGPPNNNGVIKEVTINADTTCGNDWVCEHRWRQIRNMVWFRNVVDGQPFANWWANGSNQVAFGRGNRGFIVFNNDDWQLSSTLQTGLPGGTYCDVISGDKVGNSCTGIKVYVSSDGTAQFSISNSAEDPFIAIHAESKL

Saccharomyces cerevisiae = assay: Inhibition of Saccharomyces cerevisiae alpha-glucosidase using PNPG as substrate at 200 uM preincubated for 10 mins followed by substrate addition measured after 10 mins
[2] = Inhibition of Saccharomyces cerevisiae alpha-glucosidase using PNPG as substrate preincubated for 10 mins followed by substrate addition measured after 10 mins

Row | SMILES | inhibition (Rattus norvegicus) [%] | inhibition [1] [%] | inhibition (Saccharomyces cerevisiae) [%] | pIC50 [2]
1 | CC1(C)CC[C@]2(C(=O)O)CC[C@]3(C)C(=CC[C@@H]4[C@@]5(C)C[C@@H](O)[C@H](O)[C@@](C)(CO)[C@@H]5[C@H](O)C[C@]43C)[C@@H]2C1 | 10.1 | 7.5 | 21 | –
2 | CC1(C)CC[C@]2(C(=O)O[C@@H]3O[C@H](CO)[C@@H](O)[C@H](O)[C@H]3O)CC[C@]3(C)C(=CC[C@@H]4[C@@]5(C)CC[C@H](O)[C@@](C)(CO)[C@@H]5CC[C@]43C)[C@@H]2[C@@H]1O | 9.7 | 5.6 | 20.7 | –
3 | CC1(C)CC[C@]2(C(=O)O[C@@H]3O[C@H](CO)[C@@H](O)[C@H](O)[C@H]3O)CC[C@]3(C)C(=CC[C@@H]4[C@@]5(C)C[C@@H](O)[C@H](O)C(C)(C)[C@@H]5CC[C@]43C)[C@@H]2[C@@H]1O | 7.8 | 7.2 | 36.1 | –
4 | CC1(C)CC[C@]2(C(=O)O)CC[C@]3(C)C(=CC[C@@H]4[C@@]5(C)C[C@@H](O)[C@H](O)C(C)(C)[C@@H]5CC[C@]43C)[C@@H]2[C@@H]1O | 7.8 | 6.2 | 48.2 | –
5 | CC1(C)CC[C@]2(C(=O)O[C@@H]3O[C@H](CO)[C@@H](O)[C@H](O)[C@H]3O)CC[C@]3(C)C(=CC[C@@H]4[C@@]5(C)C[C@@H](O)[C@H](O)[C@@](C)(CO)[C@@H]5CC[C@]43C)[C@@H]2[C@@H]1O | – | – | 3.1 | –
6 | CC1(C)CC[C@]2(C(=O)O)CC[C@]3(C)C(=CC[C@@H]4[C@@]5(C)C[C@@H](O)[C@H](O)[C@@](C)(CO)[C@@H]5CC[C@]43C)[C@@H]2[C@@H]1O | 2.8 | 1.7 | 4.4 | –
7 | CC1(C)CC[C@]2(C(=O)O)CC[C@]3(C)C(=CC[C@@H]4[C@@]5(C)C[C@@H](O)[C@H](O)[C@@](C)(CO)[C@@H]5CC[C@]43C)[C@@H]2C1 | 4.7 | 9.7 | 48.8 | –
8 | CC1=C2C3=CC[C@@H]4[C@@]5(C)C[C@@H](O)[C@H](O)[C@@](C)(CO)[C@@H]5CC[C@@]4(C)[C@]3(C)CC[C@@]2(C(=O)O[C@@H]2O[C@H](CO)[C@@H](O)[C@H](O)[C@H]2O)CC[C@H]1C | 7.3 | 2.4 | 25.1 | –
9 | CC1(C)CC[C@]2(C(=O)O[C@@H]3O[C@H](CO)[C@@H](O)[C@H](O)[C@H]3O)CC[C@]3(C)C(=CC[C@@H]4[C@@]5(C)C[C@@H](O)[C@H](O)[C@@](C)(CO)[C@@H]5CC[C@]43C)[C@@H]2C1 | 6.4 | 5.9 | 4 | –
10 | CC1(C)CC[C@]2(C(=O)O[C@@H]3O[C@H](CO)[C@@H](O)[C@H](O)[C@H]3O)CC[C@]3(C)C(=CC[C@@H]4[C@@]5(C)C[C@@H](O)[C@H](O)[C@@](C)(COC(=O)[C@@H](CC(=O)O)C[C@H]6c7c(cc(O)c(O)c7O)C(=O)O[C@@H]6C(=O)O)[C@@H]5CC[C@]43C)[C@@H]2[C@@H]1O | 6.7 | 4.4 | 8.2 | –
11 | CC1(C)CC[C@]2(C(=O)O)CC[C@]3(C)C(=CC[C@@H]4[C@@]5(C)C[C@@H](O)[C@H](O)[C@@](C)(COC(=O)[C@H](CC(=O)O)C[C@H]6c7c(cc(O)c(O)c7O)C(=O)O[C@@H]6C(=O)O)[C@@H]5CC[C@]43C)[C@@H]2[C@@H]1O | 8.5 | 3.3 | 40.1 | –
12 | C[C@H]1O[C@H](O[C@H]2[C@H](O)[C@@H](O)[C@@H](O[C@H]3[C@H](O)[C@@H](O)C(O)O[C@@H]3CO)O[C@@H]2CO)[C@H](O)[C@@H](O)[C@@H]1N[C@H]1C=C(CO)[C@@H](O)[C@H](O)[C@H]1O (stereo not given in full) [ACARBOSE] | 69.3 | 82.1 | 58.6 | 3.76
